Data as given in patent US12692261B2, “Substituted heterocyclic compounds and therapeutic uses thereof” (Bayer Aktiengesellschaft, priority 2020, dated 2026).

Columns and labels:
[1] = molecular target: T1, full-length human CSNK1A1 (Homo sapiens, UniProt P48729); test: CSNK1A1 Assay 2 (ADP-Glo, 1 μM ATP, substrate biotin-Ahx-KRRRAL-pS-VASLPGL); assay type: biochemical; conditions: Table 3, read-out: CSNK1A1 Assay 2 IC50 [mol/l] (median)
T1 construct: N-terminal Glutathion-S-Transferase (GST) and full-length human CSNK1A1; purchased Life Technologies PV4174; host or cells: baculovirus infected insect cells
How it was run: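 GST-tagged full-length human CSNK1A1 from baculovirus-infected insect cells (about 0.0375 ng/μL), preincubated 15 min at 22 °C with compound in HEPES pH 7.5 buffer, with 1 μM ATP and biotin-Ahx-KRRRAL-pS-VASLPGL substrate. ADP formed read by ADP-Glo luminescence.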

full-length human CSNK1D = molecular target: T2, full-length human CSNK1D (Homo sapiens, UniProt P48730); test: CSNK1D Assay (ADP-Glo, 1 μM ATP); assay type: biochemical; conditions: Table 3, read-out: CSNK1D IC50 [mol/l] (median)
T2 construct: N-terminal Glutathion-S-Transferase (GST) and full-length human CSNK1D; purchased Life Technologies PV3665; host or cells: baculovirus infected insect cells
How it was run: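 Enzyme is N-terminal GST-tagged full-length human CSNK1D from baculovirus-infected insect cells (typically about 0.5 ng/μL), with a biotinylated peptide substrate and 1 μM ATP. Compound pre-incubated 15 min at 22° C in HEPES pH 7.5 buffer; ADP formed is read by ADP-Glo luminescence.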

T2 sequence (P48730 whole entry): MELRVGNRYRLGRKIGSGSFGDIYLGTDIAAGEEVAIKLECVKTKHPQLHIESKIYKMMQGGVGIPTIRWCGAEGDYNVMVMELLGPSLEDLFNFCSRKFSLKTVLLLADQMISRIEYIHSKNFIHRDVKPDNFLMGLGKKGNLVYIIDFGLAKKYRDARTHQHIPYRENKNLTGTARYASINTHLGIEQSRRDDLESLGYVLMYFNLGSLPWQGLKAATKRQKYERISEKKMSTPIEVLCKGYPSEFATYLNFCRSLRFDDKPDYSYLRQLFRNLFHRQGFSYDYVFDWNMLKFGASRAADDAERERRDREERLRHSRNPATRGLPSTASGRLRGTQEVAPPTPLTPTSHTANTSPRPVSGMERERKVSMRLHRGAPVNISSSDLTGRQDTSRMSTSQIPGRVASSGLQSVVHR
T1 sequence (P48729 whole entry): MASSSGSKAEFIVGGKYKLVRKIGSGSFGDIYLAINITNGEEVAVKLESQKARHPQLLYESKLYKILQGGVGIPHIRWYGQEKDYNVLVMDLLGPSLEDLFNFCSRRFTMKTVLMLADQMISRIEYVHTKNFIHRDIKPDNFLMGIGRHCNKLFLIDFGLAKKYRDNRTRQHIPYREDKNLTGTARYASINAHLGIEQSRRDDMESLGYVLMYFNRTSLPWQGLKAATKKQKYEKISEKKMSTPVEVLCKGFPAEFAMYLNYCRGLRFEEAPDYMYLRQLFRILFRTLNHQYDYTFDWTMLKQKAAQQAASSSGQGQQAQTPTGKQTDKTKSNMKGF

SMILES	IC50 [1] [nM]	IC50 (full-length human CSNK1D) [nM]
O=C(Nc1cc(-c2[nH]c3ncc(F)nc3c2-c2ccccn2)ccn1)C(CC(F)F)c1ccc(F)cc1 (single isomer, unassigned) [Example 63, (2R or S)-4,4-difluoro-2-(4-fluorophenyl)-N-{4-[2-fluoro-7-(pyridin-2-yl)-5H-pyrrolo[2,3-b]pyrazin-6-yl]pyridin-2-yl}butanamide]	1.48	3.77
Cc1cnc2c(-c3ccccn3)c(-c3ccnc(NC(=O)C(CC(F)F)c4ccc(F)cc4)c3)[nH]c2n1 (single isomer, unassigned; (+)) [Example 86, (+)-4,4-difluoro-2-(4-fluorophenyl)-N-{4-[3-methyl-7-(pyridin-2-yl)-5H-pyrrolo[2,3-b]pyrazin-6-yl]pyridin-2-yl}butanamide]	2.89	6.16
O=C(Nc1cc(-c2[nH]c3cc(Cl)cnc3c2-c2ccccn2)ccn1)C(CC(F)F)c1ccc(F)cc1 (single isomer, unassigned) [Example 89, (−)—N-{4-[6-chloro-3-(pyridin-2-yl)-1H-pyrrolo[3,2-b]pyridin-2-yl]pyridin-2-yl}-4,4-difluoro-2-(4-fluorophenyl)butanamide]	89	104
O=C(Nc1cc(-c2[nH]c3c(O[C@H]4CCOC4)cc(F)nc3c2-c2ccccn2)ccn1)C(CC(F)F)c1ccc(F)cc1 (single isomer, unassigned) [Example 54, (2R or S)-4,4-difluoro-N-{4-[5-fluoro-7-{[(3S)-oxolan-3-yl]oxy}-3-(pyridin-2-yl)-1H-pyrrolo[3,2-b]pyridin-2-yl]pyridin-2-yl}-2-(4-fluorophenyl)butanamide]	4.22	3.7
O=C(Nc1cc(-c2[nH]c3c(OC[C@@H]4COCCO4)cc(F)nc3c2-c2ccccn2)ccn1)C(CC(F)F)c1ccc(F)cc1 (mixture of isomers) [Example 57, (2RS)—N-(4-{7-[(2S)-1,4-dioxan-2-ylmethoxy]-5-fluoro-3-(pyridin-2-yl)-1H-pyrrolo[3,2-b]pyridin-2-yl}pyridin-2-yl)-4,4-difluoro-2-(4-fluorophenyl)butanamide]	7.89	6.33
O=C(Nc1cc(-c2[nH]c3c(OC[C@H]4COCCO4)cc(F)nc3c2-c2ccccn2)ccn1)C(CC(F)F)c1ccc(F)cc1 (single isomer, unassigned) [Example 51, (2R or S)—N-{4-[7-{[(2R)-1,4-dioxan-2-yl]methoxy}-5-fluoro-3-(pyridin-2-yl)-1H-pyrrolo[3,2-b]pyridin-2-yl]pyridin-2-yl}-4,4-difluoro-2-(4-fluorophenyl)butanamide]	4.65	4.1
O=C(Nc1cc(-c2[nH]c3c(N4CCNCC4)ccnc3c2-c2ccccn2)ccn1)C(CC(F)F)c1ccc(F)cc1 (racemic) [Example 92, (2RS)-4,4-difluoro-2-(4-fluorophenyl)-N-{4-[7-(piperazin-1-yl)-3-(pyridin-2-yl)-1H-pyrrolo[3,2-b]pyridin-2-yl]pyridin-2-yl}butanamide]	2.35	6.27
COc1cnc2c(-c3ccccn3)c(-c3ccnc(NC(=O)C(CC(F)F)c4ccc(F)cc4)c3)[nH]c2c1 (single isomer, unassigned) [Example 83, 4,4-difluoro-2-(4-fluorophenyl)-N-{4-[6-methoxy-3-(pyridin-2-yl)-1H-pyrrolo[3,2-b]pyridin-2-yl]pyridin-2-yl}butanamide]	9.86	35.3
O=C(Nc1cc(-c2[nH]c3ccnnc3c2-c2ccccn2)ccn1)C(CC(F)F)c1ccc(F)cc1 (single isomer, unassigned) [Example 66, (2R or 2S)-4,4-difluoro-2-(4-fluorophenyl)-N-{4-[7-(pyridin-2-yl)-5H-pyrrolo[3,2-c]pyridazin-6-yl]pyridin-2-yl}butanamide]	2.43	4.59
